From US6903129B2, “D-proline prodrugs” (Hoffman-La Roche Inc., priority 2001, dated 2005)

Columns and labels:
[1] = Stability of the prodrugs in plasma samples; assay type: in vitro ADME, rat; details: half-life (50% conversion of the prodrug), 10 μM, 37° C.
Description: Stability of the Prodrugs in Blood and Plasma Samples
Plasma and blood samples from different species were merged with equimolar amounts (10 μM) of prodrug and parent drug in DMSO and incubated for different time intervals (up to 60 min.) at 37° C. The reaction was stopped by protein precipitation with acetonitrile followed by centrifugation (20 min., 1800 g at 10° C.). The supernatant was immediately subjected to analysis.
The concentration of formed parent compound was determined by LC-MS. The chromatographic system was comprised of a trapping column (X-Terra™ MS C8 3.5 μm, 10×2.1 mm i.d., Waters) and an analytical column (Symmetry C8 3.5 μm, 50×2.1 mm i.d., Waters) connected to a SCIEX API 2000 triplequadrupole mass spectrometer equipped with a turbo ion spray interface. The mobile phases were 1% aqueous formic acid and acetonitrile. The parent compound together with its deuterium labelled internal standard was enriched on the trapping column and eluted with a fast gradient. The retention time of (R)-1-[6-[(R)-2-carboxy-pyrrolidin-1-yl]-6-oxo-hexanoyl]-pyrrolidine-2-carboxylic acid was ˜2.1 min. The effluent (300 μl min^−1) was passed to the turbo ion spray interface without splitting and was nebulized using nitrogen. Multiple reaction monitoring (MRM) in positive mode Was used for mass spectrometric detection. The transitions for the parent were 341.1 [M+H]^+ to 226.1 [Fragment]^+ and for the internal standard 349.1 [M+H]^+ to 234.1 [Fragment]^+. The results were expressed as half-lifes (50% conversion of the prodrug), using the data of the prodrug at time-point 0 min. as […].

[2] = Rat liver microsome incubation; assay type: in vitro ADME; details: for Rat microsomes Clearance: intrinsic clearance, rat liver microsomes 1.0 mg prot/mL, prodrug 10 μM, 37° C.; for Rat microsomes MAB %: maximal achievable bioavailability (1−E), extrapolated from rat microsomal clearance
Description: (§1) Test Description for Microsome Incubation
(§2) Rat and human liver microsome incubations were conducted on-line in a CTC PAL autosampler in order to avoid any degradation of the prodrugs during the work-up. Incubation mixtures consisted of liver microsomes (rat 1.0 mg prot/mL or human 2.0 mg prot/mL), prodrug 10 μM, MgCl2 (3.3 mM), and an NADPH regenerating system consisting of glucose-6-phosphate dehydrogenase, NADPH and glucose-6-phosphate equivalent to 1 mM NADPH) in a total volume of 1.0 mL of potassium phosphate buffer 100 mM pH 7.4.
(§3) Reactions were initiated by addition of the NADPH regenerating system at 37° C. At time 1, 5, 9, 13, 17, 21, 25, and 29 min a 5 μL aliquot was directly analysed on a HPLC-MS/MS system comprising of a HP 1100 quaternary pump with degasser and a PE-Sciex API-2000 MS/MS spectrometer. The analytical column was a Waters Symmetry Shield RP8 (2.1*50 mm with a […] particle size). A polarity non linear gradient from phase A (MeOH/Ac. Form.1% 20/80) to phase B (MeOH) was applied for a total run time of 2 minutes at a flow rate of 0.25 mL/min. The PE-Sciex API-2000 MS/MS spectrometer was used for detection of both the prodrugs and the parent compound (R)-1-[6-[(R)-2-carboxy-pyrrolidin-1-yl]-6-oxo-hexanoyl]-pyrrolidine-2-carboxylic acid. In vivo metabolic clearance was predicted according to published procedures (Houston, J. B., Biochem. Pharmacol., 47:1469-1479, 1994). In brief, the intrinsic clearance (Clearance, Table 1) was calculated from the measured in vitro half-life taking into account incubation volume and microsomal protein used for the in vitro incubation. The intrinsic clearance was expressed in terms of ul/min/mg microsomal protein. For in vivo extrapolations, the hepatic extraction ratio (E) was calculated. Reported below is the %MAB value (maximal achievable bioavailability), which is equal to 1−E.

[3] = Human liver microsome incubation; assay type: in vitro ADME; details: for Human microsomes Clearance: intrinsic clearance, human liver microsomes 2.0 mg prot/mL, prodrug 10 μM, 37° C.; for Human microsomes MAB %: maximal achievable bioavailability (1−E), extrapolated from human microsomal clearance
Description: as §1, §2, §3

Structure (SMILES) | Rat plasma tl/2 hours [1] | Rat microsomes Clearance [2] | Rat microsomes MAB % [2] [%] | Human microsomes Clearance [3] | Human microsomes MAB % [3] [%]
NC(=O)COC(=O)[C@H]1CCCN1C(=O)CCCCC(=O)N1CCC[C@@H]1C(=O)OCC(N)=O [Example 1, (R)-1-[6-[(R)-2-Carbamoylmethoxycarbonyl-pyrrolidin-1-yl]-6-oxo-hexanoyl]-pyrrolidine-2-carboxylic acid carbamoylmethyl ester] | 0.4 h | 5 ul/min/mg microsomal protein | 88 | 1 ul/min/mg microsomal protein | 93
CCN(CC)C(=O)COC(=O)[C@H]1CCCN1C(=O)CCCCC(=O)N1CCC[C@@H]1C(=O)OCC(=O)N(CC)CC [Example 7, (R)-1-{6-[(R)-2-(Diethylcarbamoyl-methoxycarbonyl)-pyrrolidin-1-yl]-6-oxo-hexanoyl}-pyrrolidine-2-carboxylic acid diethylcarbamoyl-methyl ester] | 0.2 h | 9 ul/min/mg microsomal protein | 73 | 2 ul/min/mg microsomal protein | 90
COC(=O)[C@H]1CCCN1C(=O)CCCCC(=O)N1CCC[C@@H]1C(=O)OC [Example 10, (R)-1-{6-[(R)-2-Methoxycarbonyl-pyrrolidin-1-yl]-6-oxo-hexanoyl}-pyrrolidine-2-carboxylic acid methyl ester] | 1.3 h | 9 ul/min/mg microsomal protein | 79 | 2 ul/min/mg microsomal protein | 90
O=C(COC(=O)[C@H]1CCCN1C(=O)CCCCC(=O)N1CCC[C@@H]1C(=O)OCC(=O)NC1CC1)NC1CC1 [Example 5, (R)-1-{6-[(R)-2-(Cyclopropylcarbamoyl-methoxycarbonyl)-pyrrolidin-1-yl]-6-oxo-hexanoyl}-pyrrolidine-2-carboxylic acid cyclopropylcarbamoyl-methyl ester] | low | 36 ul/min/mg microsomal protein | 50 | 8 ul/min/mg microsomal protein | 67
CCCOC(=O)[C@H]1CCCN1C(=O)CCCCC(=O)N1CCC[C@@H]1C(=O)OCCC [Example 12, (R)-1-{6-Oxo-6-[(R)-2-propoxycarbonyl-pyrrolidin-1-yl]-hexanoyl}-pyrrolidine-2-carboxylic acid propyl ester] |  | 253 ul/min/mg microsomal protein | 12 | 73 ul/min/mg microsomal protein | 18
CCOC(=O)[C@H]1CCCN1C(=O)CCCCC(=O)N1CCC[C@@H]1C(=O)OCC [Example 11, (R)-1-{6-[(R)-2-Ethoxycarbonyl-pyrrolidin-1-yl]-6-oxo-hexanoyl}-pyrrolidine-2-carboxylic acid ethyl ester] | 0.4 h | 46 ul/min/mg microsomal protein | 44 | 5 ul/min/mg microsomal protein | 77
CC(C)NC(=O)COC(=O)[C@H]1CCCN1C(=O)CCCCC(=O)N1CCC[C@@H]1C(=O)OCC(=O)NC(C)C [Example 3, (R)-1-{6-[(R)-2-(Isopropylcarbamoyl-methoxycarbonyl)-pyrrolidin-1-yl]-6-oxo-hexanoyl}-pyrrolidine-2-carboxylic acid isopropylcarbamoyl-methyl ester] | low | 82 ul/min/mg microsomal protein | 30 | 16 ul/min/mg microsomal protein | 50
CN(C)C(=O)COC(=O)[C@H]1CCCN1C(=O)CCCCC(=O)N1CCC[C@@H]1C(=O)OCC(=O)N(C)C [Example 6, (R)-1-{6-[(R)-2-(Dimethylcarbamoyl-methoxycarbonyl)-pyrrolidin-1-yl]-6-oxo-hexanoyl}-pyrrolidine-2-carboxylic acid dimethylcarbamoyl-methyl ester] | 0.8 h | 7 ul/min/mg microsomal protein | 84 | 1 ul/min/mg microsomal protein | 96
C=CCNC(=O)COC(=O)[C@H]1CCCN1C(=O)CCCCC(=O)N1CCC[C@@H]1C(=O)OCC(=O)NCC=C [Example 2, (R)-1-[6-[(R)-2-Allylcarbamoylmethoxycarbonyl-pyrrolidin-1-yl]-6-oxo-hexanoyl]-pyrrolidine-2-carboxylic acid allylcarbamoylmethyl ester] | low | 18 ul/min/mg microsomal protein | 66 | 64 ul/min/mg microsomal protein | 20
CC(C)(C)NC(=O)COC(=O)[C@H]1CCCN1C(=O)CCCCC(=O)N1CCC[C@@H]1C(=O)OCC(=O)NC(C)(C)C [Example 4, (R)-1-{6-[(R)-2-(tert-Butylcarbamoyl-methoxycarbonyl)-pyrrolidin-1-yl]-6-oxo-hexanoyl}-pyrrolidine-2-carboxylic acid tert-butylcarbamoyl-methyl ester] | low | 625 ul/min/mg microsomal protein | 5 | 57 ul/min/mg microsomal protein | 22
